Assay results as given in paper PMC12635197, “Discovery of first-in-class inhibitors of the TRF1:TIN2 protein:protein interaction by fragment screening” (Scientific Reports, 2025).

What was measured:
TRF1TRFH [1] = biological target: T1, TRF1TRFH (Homo sapiens, UniProt P54274); assay: LO-NMR CPMG assay (relaxation-edited), singletons; assay type: binding; conditions: single experiment; for CPMG reduction: average peak intensity reduction on addition of TRF1TRFH, 250 µM ligand, 20 µM protein; for CPMG recovery: net recovery of peak intensity on addition of TIN2TBM peptide (40 µM) to compound plus protein
T1 construct: encoding residues 47–268, UniProt identifier P54274-1; His6-MBP (TEV-cleavable) (N, cleaved yes); made in house; host or cells: E. coli BL21-CodonPlus(DE3)-RIL
T1 sequence (P54274 47-268): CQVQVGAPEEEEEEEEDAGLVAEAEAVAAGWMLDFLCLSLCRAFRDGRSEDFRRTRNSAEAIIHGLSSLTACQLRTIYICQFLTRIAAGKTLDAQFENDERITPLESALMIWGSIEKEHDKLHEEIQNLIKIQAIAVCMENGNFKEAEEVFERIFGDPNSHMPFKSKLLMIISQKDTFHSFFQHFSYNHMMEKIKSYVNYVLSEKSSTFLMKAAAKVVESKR
Experimental: We next used a LO-NMR CPMG assay to orthogonally validate XChem hits in solution, aiming to eliminate false positives and rank hit matter for follow-up studies. Compounds were tested as singletons and prepared in two samples containing either compound alone (sample 1) or compound + TRF1TRFH (sample 2).
The fragment screen by LO-NMR was carried out using conditions described previously, with some modifications. Fragments were dispensed in triplicate into a 384-well plate using an Echo 550 liquid handler to give a final ligand concentration of 250 µM (total sample volume of 40 µL). 40 µL of TRF1TRFH protein (in NMR buffer; 20 µM final protein concentration in the assay) were added to the ‘protein’ samples; 40 µL of TRF1TRFH protein and TIN2TBM peptide (21-mer, Ac-[…]-CONH2; 40 µM final concentration in the assay) were both added to the ‘competitor’ samples; 40 µL NMR buffer were added to the ‘compound-only’ samples. Solutions were transferred to 1.7-mm NMR tubes using a Bruker SamplePro Tube robotics system. ^1H NMR spectra were recorded on a Bruker AVIII 500 MHz spectrometer at 298 K, equipped with a 1.7-mm TXI probe, with samples in 1.7-mm SampleJET NMR tubes (Bruker). DMSO and water signals were dampened. A relaxation spin filter was applied at 400 ms. Data were processed using Bruker Topspin 4.0. Lines were broadened with LB = 3.0, and the baseline was corrected between 6.0 and 10.0 ppm.
The data were then analysed using the MNova Screen software. Only peaks between 5.5 and 9.5 ppm were considered. Peaks with a height of < 5% maximum peak height within the region of interest were considered noise, and the minimum matched peak level was set at > 51%. The relative peak intensity change (I) was calculated for all peaks in the 5.5–9.5 ppm region, for each compound, as described previously. The average integral for all peaks between 6.0 and 10.0 ppm was calculated, and the differences between compound-only, compound-plus-protein, and compound-plus-protein-plus-competitor samples were compared. The net recovery was calculated by subtracting the reduction in peak integral of the compound-plus-protein samples from the compound-plus-protein-plus-competitor samples.
For hit validation, relaxation-edited LO-NMR experiments were repeated as described above on single compounds instead of fragment cocktails.

[2] = biological target: T2, TRF1TRFH:TIN2-FAM interaction (Homo sapiens, UniProt P54274); assay: Fluorescence polarisation (FP) competition assay, TIN2-FAM displacement; assay type: binding; conditions: 0.6 µM TRF1TRFH, 25 nM TIN2-FAM; mean of three independent experiments, 95% CI in parentheses
T2 construct: encoding residues 47–268, UniProt identifier P54274-1; His6-MBP (TEV-cleavable) (N, cleaved yes); made in house; host or cells: E. coli BL21-CodonPlus(DE3)-RIL (TRF1TRFH); probe peptide from Pepceuticals
T2 sequence (P54274 47-268): T1 sequence (P54274 47-268)
Experimental: To complement the biophysical R2KD assay, we developed a fluorescence polarisation (FP) competition assay based on a TIN2TBM peptide labelled with an N-terminal 5(6)-carboxyfluorescein (6-FAM) fluorophore. […] The NMR hit analogues were then titrated against constant concentrations of TRF1TRFH and TIN2-FAM (0.6 µM and 25 nM, respectively).
A TIN2TBM peptide was obtained from Pepceuticals with a 5(6)-carboxyfluorescein (FAM) fluorophore added to the N-terminus for fluorescence studies. To determine the assay window for the FP assay, the TIN2-FAM probe was prepared as a 16-µM stock in aqueous buffer and titrated from 0 to 400 nM against either a constant concentration of TRF1TRFH (0.5 µM in FP buffer) or FP buffer alone (25 mM HEPES-NaOH pH 7.5, 100 mM NaCl, 1 mM TCEP, 0.05% w/v CHAPS). Samples were prepared to a final volume of 10 µL in Packard Proxiplate 384 F plus plates; plates were incubated in darkness at room temperature for 1 h prior to measuring fluorescence intensities and calculating FP values, using a BMG Labtech PHERAstar FSX plate reader with an FP 485 520 520 optic module. A settling time of 0.3 s was used, and the number of flashes was set to 200 for FP measurements. For each plate, a target mP of 35 was set and the gain adjusted on the TIN2-FAM probe control well minus protein.
For the FP competition assay, the unlabelled compounds (from 50-mM DMSO stocks) were first dispensed in duplicate into wells of a Proxiplate 384 F Plus plate using an Echo 550 acoustic liquid handler to give a 13-point concentration range from 0.2 to 500 µM. Wells were then backfilled to 250 nL with DMSO before the addition of 5 µL of 2x TRF1TRFH (0.6 µM final concentration) and 4.75 µL 2x TIN2-FAM (25 nM final concentration). Plates were spun and sealed prior to incubation for 1 h in darkness. FP measurements were then carried out as described above.

TRF1TRFH [3] = biological target: T1, TRF1TRFH; assay: LO-NMR R2KD assay; assay type: binding; conditions: for Kd: global KD shared across 1H NMR peaks, single experiment, 95% CI in parentheses, 2 µM TRF1TRFH
Experimental: Recent work by Liu and colleagues introduced a novel LO-NMR method that can be used to quantitatively determine the dissociation constant (KD) of a ligand for a protein from measured R2 values of ligand nuclei at a range of ligand concentrations.
The R2KD assay was carried out as described by Liu et al.[40]. A Bruker SamplePro liquid handler was used to prepare 10 samples: 8 samples containing an increasing ligand concentration from 50 to 500 µM whilst maintaining a constant TRF1TRFH concentration (2 µM final); and two samples containing ligand only at 200 µM and 400 µM. All ten samples were prepared from stock solutions of ligand, DMSO, protein and buffer alone using the Bruker SamplePro liquid handler prior to transfer to 3-mm NMR tubes.
NMR data were collected at 298 K on a Bruker Avance Neo 600-MHz spectrometer using the Bruker Topspin 4.0 software. T2 relaxation experiments were performed using the standard Bruker CPMG pulse program with Excitation Sculpting incorporated to suppress water signal. The spin-echo period (delay-180°-delay) was set to 1 ms (d20 = 500 µs), and the relaxation delay (d1) was set to 10 s. The sudo-2D experiment contained nine slices with the spin echo period repeated at the following times: 4, 20, 100, 200, 300, 500, 700, 1000, and 2000 ms. T2 relaxation data were processed using the MestReNova 14.1 data analysis module to obtain integrals of individual[1]H-NMR signals, which were used to calculate R2 with the equation I = I0e^(−tR2). GraphPad Prism 9.0.0 was used to fit R2 values of individual compound peaks to obtain an overall (shared) KD value from all peaks of the compound.

[4] = Fragment solubility assay (quantitative 1H NMR); assay type: physicochemical; conditions: NMR buffer, overnight incubation, 1H NMR quantified against 1 mM caffeine standard
Experimental: Aqueous solubility test samples were prepared by adding 3.6 µL compound (50 mM stock in 100% DMSO-d6) to 176.4 µL NMR buffer in a microcentrifuge tube. The samples were incubated overnight and transferred to a 3-mm NMR tube (Bruker, Part No. Z112272). ^1H NMR spectra were recorded, with the DMSO and water signals dampened. 1 mM caffeine (Sigma, C1778 in PBS (pH 7.4) with 1% DMSO-d6) was used as a standard to quantify the ligand signals and determine the concentration of samples.
NMR data were collected on a Bruker Avance Neo 600-MHz spectrometer equipped with a 5 mm TCI-CryoProbe. The ^1H spectrum was referenced to the internal deuterated solvent. The operating frequency for ^1H was 600 MHz. All NMR data were acquired at the temperature of 298 K. All data were acquired and processed using Bruker Topspin 4.0. The quantitative ^1H-NMR spectrum was acquired using a Bruker standard 1D lc1pngppsf2 pulse sequence with 32 scans. The sweep width was 6.2 ppm with O1P set to 8.8 ppm, and the FID contained 16k time-domain data points. Relaxation delay was set to 20 s. Water signal was suppressed.

| SMILES | CPMG reduction (TRF1TRFH [1]) | CPMG recovery (TRF1TRFH [1]) | IC50 [2] | increase in affinity relative to ethoxy parent 27 (TRF1TRFH [3]; R2KD assay) | Kd (TRF1TRFH [3]) | Kin. Sol. [4] |
| --- | --- | --- | --- | --- | --- | --- |
| NS(=O)(=O)c1ccccc1OC(F)F [Compound 15] | 0% | – | – | – | – | – |
| O=C(NC1CC1)c1cnn2cccnc12 [Compound 1] | 13% | – | – | – | – | – |
| CCCOc1cccc(COc2ccc(S(=O)(=O)[O-])c3ccccc23)c1.[Na+] [Compound 41] | – | – | 23 µM | – | 46 µM | 590 µM |
| CN(C)C(=O)COc1cccc(F)c1 [Compound 6] | 12% | – | – | – | – | – |
| COc1cccc(COc2ccc(S(=O)(=O)[O-])c3ccccc23)c1.[Na+] [Compound 38] | – | – | 150 µM | – | 53 µM | 570 µM |
| O=S(=O)([O-])c1ccc(OCc2cccc(OC(F)(F)F)c2)c2ccccc12.[Na+] [Compound 42] | – | – | 80 µM | – | – | 260 µM |
| O=S(=O)([O-])c1ccc(OCc2cccc(Br)c2)c2ccccc12.[Na+] [Compound 44] | – | – | 110 µM | – | – | 160 µM |
| c1ccc(-c2noc(C3CCC3)n2)nc1 [Compound 16] | 22% | – | – | – | – | – |
| O=S(=O)([O-])c1ccc(OCc2cccc(Cl)c2)c2ccccc12.[Na+] [Compound 43] | – | – | 180 µM | – | 140 µM | 500 µM |

Now from value to compound:

| CPMG reduction (TRF1TRFH [1]) | CPMG recovery (TRF1TRFH [1]) | IC50 [2] | increase in affinity relative to ethoxy parent 27 (TRF1TRFH [3]; R2KD assay) | Kd (TRF1TRFH [3]) | Kin. Sol. [4] | SMILES |
| --- | --- | --- | --- | --- | --- | --- |
| 100% | 29% | 150 µM | five-fold increase in affinity | 61 µM | 850 µM | O=S(=O)(O)c1ccc(OCc2ccccc2)c2ccccc12 [Compound 32] |
| 28% | 20% | – | – | – | 895 µM | CCOc1ccc(C(=O)O)c2ccccc12 [Compound 34, 4-ethoxy-1-naphthoic acid] |
| 87% | 22% | – | – | – | 610 µM | COc1ccc(S(=O)(=O)O)c2ccccc12 [Compound 28, 4-methoxy-1-naphthalenesulfonic acid] |
| – | – | – | – | > 1000 µM | 840 µM | O=S(=O)(O)c1ccc(O)c2ccccc12 [Compound 29, 1-naphthol-4-sulfonic acid] |
| – | – | – | – | – | < 50 µM | CCOc1ccc(S(=O)(=O)N(C)C)c2ccccc12 [Compound 35] |
| – | – | 200 µM | – | 83 µM | 460 µM | Cc1cccc(COc2ccc(S(=O)(=O)[O-])c3ccccc23)c1.[Na+] [Compound 37] |
| – | – | 170 µM | – | 110 µM | 320 µM | COc1ccccc1COc1ccc(S(=O)(=O)[O-])c2ccccc12.[Na+] [Compound 39] |
| 79% | 1% | – | – | – | 50 µM | CCOc1ccc(S(N)(=O)=O)c2ccccc12 [Compound 33, 4-ethoxynaphthalene-1-sulfonamide] |
| 83% | 4% | – | – | > 1000 µM | 860 µM | CC(C)Oc1ccc(S(=O)(=O)[O-])c2ccccc12.[Na+] [Compound 30] |
| – | – | – | – | – | 0 µM | CCOc1ccc(S(=O)(=O)NCc2ccccc2)c2ccccc12 [Compound 36] |
| 96% | 49% | – | – | 280 µM | 810 µM | CCOc1ccc(S(=O)(=O)O)c2ccccc12 [Compound 27] |
